# Test results published in article PMC12064818, “A general assay platform to study protein pharmacology using ligand-dependent structural dynamics” (Nature Communications, 2025).
# Molecular target: T1, FLuc-C-HiBiT (Photinus pyralis, UniProt P08659)
# T1 construct: firefly luciferase with C-terminal HiBiT tag, E. coli expressed
# Experiment: biochemical
# Conditions: enzyme activity, 10 uM ATP; read-out: IC50 or SDR50 (mM) / FLuc E
# Protocol: The enzyme activity of FLuc-N-HiBiT, FLuc-C-HiBiT, and FLuc-C-NLuc was measured similar to P. pyralis firefly luciferase (FLuc) as previously described. […] Compounds and controls were added to each plate as described in Supplementary Data 8 with a Hornet pintool system (Wako Automation). Compounds were incubated with respective enzymes for 30–60 min at room temperature protected from light and covered by solid metal lid to prevent evaporation. […] Luciferin was incubated with FLuc enzyme for 5 min before FLuc activity was then measured on a ViewLux CCD imager (PerkinElmer), with exposure times up to ten seconds with medium to high gain settings. Data were normalized to average no enzyme control as 100% enzyme inhibition and average DMSO neutral control. See Supplementary Table 4 for additional details. As a proof-of-concept target, we appended the sensor protein or corresponding α-peptide to either the N- or C-terminus of the target protein firefly luciferase (FLuc), an ATP cofactor-dependent monooxygenase (Supplementary Fig. 1a) having a broad, well-characterized and accessible ligand pharmacology. For initial characterization of the SDR concept, either NLuc or the 11 amino acid HiBiT tag (α-peptide) and complementary 18 kDa LgBiT subunit (ω-fragment), which self-assemble to reconstitute functional NLuc enzyme[24] were tested. In contrast to the ATP-dependent bioluminescent FLuc enzyme, NLuc generates a bright bioluminescence in an ATP-independent manner from the direct oxidation of furimazine (Supplementary Fig. 1b). […] Next, FLuc-C-NLuc, FLuc-N-HiBiT or FLuc-C-HiBiT were assayed with the same inhibitor in an SDR assay format by monitoring bioluminescence from NLuc or its reconstitution by α-complementation with LgBiT. Measurements of NLuc activity were made either in the absence or presence of the FLuc ATP cofactor, as NLuc bioluminescence is ATP-independent.
# T1 sequence (P08659 whole entry, looked up): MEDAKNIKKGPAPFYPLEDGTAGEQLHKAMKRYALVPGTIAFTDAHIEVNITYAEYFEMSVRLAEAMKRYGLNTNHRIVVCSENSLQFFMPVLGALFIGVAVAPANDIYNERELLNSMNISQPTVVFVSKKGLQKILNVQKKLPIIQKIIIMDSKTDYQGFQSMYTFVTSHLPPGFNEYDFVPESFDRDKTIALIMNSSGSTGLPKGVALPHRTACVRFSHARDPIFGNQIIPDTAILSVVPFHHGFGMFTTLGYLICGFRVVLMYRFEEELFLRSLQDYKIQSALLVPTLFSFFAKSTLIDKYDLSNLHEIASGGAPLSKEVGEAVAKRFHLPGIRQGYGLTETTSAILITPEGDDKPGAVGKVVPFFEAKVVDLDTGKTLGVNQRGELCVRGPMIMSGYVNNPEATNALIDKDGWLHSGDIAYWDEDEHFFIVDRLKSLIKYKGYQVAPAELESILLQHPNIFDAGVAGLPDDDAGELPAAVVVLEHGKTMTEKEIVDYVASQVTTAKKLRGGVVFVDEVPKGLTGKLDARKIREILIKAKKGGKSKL
row,Compound,IC50 [µM]
1,CCN1C(=O)CCc2cc(NC(=O)c3ccc(C(C)C)cc3)ccc21 [NCGC00425391-01],9.89
2,Cc1ccc(Cl)cc1-n1ncc2c(N3CCC(C)CC3)ncnc21 [NCGC00138926-01],> 30
3,Cc1ccc2cc(CN3CCN(CC(N)=O)CC3)c(-c3cccs3)nc2c1 [NCGC00436639-01],12.4
4,COc1ccc(-c2ncc3c(n2)OCCN(C)C3=O)cc1F [NCGC00413447-01],18
5,CC(=O)N1CCNc2cc(Nc3ccc(F)cc3)ncc2C1 [NCGC00411083-01],5.7
6,Cc1ccc2[nH]c([C@H]3CCN(C(C)C)C3)nc2c1 [NCGC00391182-01],25.4
7,CC(=O)Nc1cccc(-c2cc3c(cn2)CN(Cc2ccccc2)CCN3)c1 [NCGC00411143-01],16.1
8,CC[n+]1c(/C=C/N(C)c2ccccc2)n(-c2ccccc2)c2ccc(-c3nc4ccccc4s3)cc21 [NCGC00165744-02],17.6
9,O=C(Cc1cccc(Cl)c1)N1CCn2c(nnc2-c2ccccc2)C1 [NCGC00479548-01],15.7
10,Cc1ccc(NC(=O)Nc2ccc(C)n(CC(=O)NC3CCCC3)c2=O)cc1 [NCGC00430792-01],0.7
11,COc1cccc(C(=O)Nc2ccc(-c3nc4ccccc4s3)cc2Cl)c1 [NCGC00137802-01],> 30
12,CCC(=O)NCCC1CCN(C(=O)Nc2ccc(C)cc2)CC1 [NCGC00424867-01],12.4
13,CC(C)(Oc1ccc(-c2nc3cc(Cl)ccc3s2)cc1)C(=O)O [NCGC00386771-01],8.81
14,CCCc1noc(-c2nc(-c3ccccc3F)no2)n1 [NCGC00450039-01],9.89
15,CCN1C(=O)CCc2cc(NC(=O)c3ccc(OC(F)(F)F)cc3)ccc21 [NCGC00425397-01],11.1
16,O=C(N[C@H]1CCN2C(=O)c3cc(/C=C/c4ccc(O)cc4)ccc3NC(=O)[C@H]12)c1cnccn1 [NCGC00421527-01],> 30
17,O=C1C[C@H]2CC[C@@H](CN1)N2Cc1ccc(OCc2ccccc2)cc1 [NCGC00434033-01],14
18,CCc1ccc(-c2nc(CSCC(=O)NCc3ccc(C)cc3)c(C)o2)cc1 [NCGC00109429-01],14
19,Cc1ccccc1-c1noc(-c2ccc(N3CCCC3)c([N+](=O)[O-])c2)n1 [NCGC00119417-01],11.1
20,Cn1nc(-c2ccc3c(c2)OCCO3)nc1N1CCCCC1 [NCGC00447616-01],9.89

row,Compound,IC50 [µM]
1,CC(C)(Oc1nn(CC2CC2)c2ccc(CN3CCCC3)cc12)C(=O)NC1CCOCC1 [NCGC00419513-01],> 30
2,COc1cccc(-c2cc(C(=O)NCc3nc(-c4ccccc4)n[nH]3)[nH]n2)c1 [NCGC00437481-01],11.1
3,CSC(=S)Nc1ccc(-c2nc3ccc(C)cc3s2)cc1 [NCGC00640908-01],2.48
4,Cc1n[nH]c2c1C(c1ccc(Cl)cc1)C(C#N)=C(N)O2 (centres unmarked) [NCGC00027933-02],> 30
5,Cc1ccc(-c2cc3c(=O)n(CCNC(=O)c4cccc(C#N)c4)ccn3n2)c(C)c1 [NCGC00456970-01],3.13
6,Cc1nn(-c2cccc(Br)c2)c(C)c1[C@@H]1C=C[C@@H](NC(=O)CC(C)(C)CC(=O)O)C1 [NCGC00401591-01],> 30
7,COc1ccc(NC(=O)Nc2cccc(-c3ccc(N4CCOCC4)nn3)c2)cc1Cl [NCGC00427610-01],1.24
8,Cc1ccc(-n2ncc3c(N4CCCCC4)nc(NCCCO)nc32)cc1 [NCGC00652354-01],> 30
9,Fc1ccc(-c2cc3c(cn2)CN(Cc2ccncc2)CCN3)cc1Cl [NCGC00411256-01],18
10,Fc1ccc(-c2cn3cc(Cc4ccccc4)sc3n2)cc1 [NCGC00102110-01],0.279
11,O=C(Nc1ccccc1)c1nc2c(o1)CCN(Cc1ccc(O)cc1)CC2 [NCGC00413411-01],5.08
12,CN(C)C1CCN(c2ncnc3c2cnn3-c2ccccc2)CC1 [NCGC00608115-01],> 30
13,Cc1cc(-c2cc3c(cn2)CN(CC(C)C)CCN3)ccn1 [NCGC00411077-01],16.1
14,CC(=O)Nc1ccc(NC(=O)CCCc2nc(-c3ccc(C(C)(C)C)cc3)no2)cc1 [NCGC00116112-01],4.95
15,COC(=O)c1c(-c2cccs2)csc1NC(=O)c1ccc(C)cc1 [NCGC00118339-01],15.7
16,CN1c2cc(C(=O)Nc3ccc4c(c3)OCCO4)ccc2C(=O)N2CCCC21 (centres unmarked) [NCGC00452151-01],7.85
17,c1ccc(Nc2cc3c(cn2)CN(Cc2cc[nH]n2)CCN3)cc1 [NCGC00411115-01],16.1
18,C[C@H](C(=O)N(C)CCC#N)C1CC[C@@]2(C)Cc3sc(NC(=O)c4cccn4C)nc3[C@@H](C)[C@@H]2[C@H]1O (some centres unmarked) [NCGC00421252-01],7
19,CN(C)C(=O)c1ccc(-c2cccc(-c3ccn(CC4CC4)n3)c2)o1 [NCGC00426335-01],7.85
20,C=Cc1ccc(-c2nc3ccc(OC)cc3s2)cc1 [NCGC00167606-01],0.442

# Next, values leading:
row,IC50 [µM],Compound
1,18,O=C1CC2(CCN(CC3CC3)CC2)Oc2ccccc21 [NCGC00476832-01]
2,5.56,COc1ccc(-c2cc(N3CCCC(NC(=O)c4cc(OC)c(OC)c(OC)c4)C3)[nH]n2)cc1 (centres unmarked) [NCGC00437614-01]
3,9.89,O=C(NCc1ccco1)Nc1cccc(-c2ccc(N3CCCC3)nn2)c1 [NCGC00427562-01]
4,> 30,Oc1cc(-c2nc3ccccc3s2)cc2c1OCCN(Cc1cccn1-c1ccc(Cl)cn1)C2 [NCGC00240283-01]
5,12.4,CN1c2cc(C(=O)Nc3ccccc3)ccc2C(=O)N2CCCCC21 (centres unmarked) [NCGC00452396-01]
6,0.124,CC1CCCN(c2ncnc3c2cnn3-c2ccc(Cl)cc2)C1 (centres unmarked) [NCGC00081383-02]
7,3.21,CNC(=O)c1cccc(-c2cnc(NC(=O)Cc3ccccc3)c3c2CCO3)c1 [NCGC00412711-01]
8,11.1,Cc1ccc(/C=C/C(=O)N2CCC(c3nc4ccccc4o3)CC2)cc1 [NCGC00118334-01]
9,> 30,COc1ccc(C(=O)Nc2ccc(-c3nc4ccccc4s3)c(Cl)c2)cc1Cl [NCGC00102002-01]
10,0.0881,Cc1ccc(C(=O)Nc2cccc(C(=O)O)c2)cc1[S+](=O)([O-])N1CCCC1 [NCGC00098466-01]
11,> 30,CC(=O)c1ccc(N[S+](=O)([O-])c2cccc([S+](=O)([O-])c3ccc(Cl)cc3)c2)cc1 [NCGC00098154-01]
12,18,COc1ccc(CN2CCNc3cc(Nc4ccccc4)ncc3C2)cn1 [NCGC00411080-01]
13,> 30,O=C(c1ccc(C(F)(F)F)cc1)N1CCc2nc(-c3ccccc3)nc(-c3ccc(Cl)cc3)c2C1 [NCGC00480461-01]
14,12.4,O=C(Nc1n[nH]c2cc(-c3ccccc3)ccc12)C1CC1 [NCGC00242141-02]
15,3.51,COc1cccc2cc(-c3nnc(-c4ccc(Cl)cc4)o3)c(=O)oc12 [NCGC00098120-01]
16,3.13,CCOc1cccc2cc(-c3nc(-c4ccccc4C)no3)c(=O)oc12 [NCGC00123322-01]
17,6.24,CC(=O)N1CCc2ccc(C(=O)NC3CCCCCC3)cc21 [NCGC00430256-01]

row,IC50 [µM],Compound
1,18,CC(=O)N[C@@H]1C=C[C@@H](c2c(C)nn(-c3ccc(C(C)(C)C)cc3)c2C)C1 [NCGC00397882-01]
2,3.51,Fc1ccc(Cc2cn3cc(-c4ccc(Cl)cc4)nc3s2)cc1 [NCGC00102108-01]
3,9.89,Cc1ccc(C2=NOC3(CCN(C(=O)c4cccc(N(C)C)c4)CC3)N2)cc1 [NCGC00446875-01]
4,4.53,O=C(Nc1ccccc1)c1nc2c(o1)CCN(Cc1ccccc1)CC2 [NCGC00413286-01]
5,> 30,CCSc1ccccc1C(=O)Nc1ccc(-c2nc3ccccc3s2)c(O)c1 [NCGC00134162-01]
6,12.4,Cc1ccc(-n2ncc3c(N4CCC(C(N)=O)CC4)ncnc32)cc1 [NCGC00139056-01]
7,18,COc1cccc(Nc2ncc(-c3cccnc3)c3c2OCC3)c1 [NCGC00412731-01]
8,4.95,COCCNC(=O)C1CCN(C(=O)c2nnn3c2COC(c2ccc(C)cc2)C3)CC1 (centres unmarked) [NCGC00449559-01]
9,12.8,CN(C)c1cccc(-c2ncc3c(n2)OCCN(c2ccccc2)C3=O)c1 [NCGC00413615-01]
10,18,Cc1ccc2oc([C@H]3CCN(Cc4cccs4)C3)nc2c1 [NCGC00397825-01]
11,8.81,O=C(O)c1ccc(-c2noc(-c3cccc(C(F)(F)F)c3)n2)cc1 [NCGC00168106-02]
12,8.81,O=C(O)C1CCc2nc(N3CCN(C(=O)C4CCC4)CC3)sc2C1 (centres unmarked) [NCGC00432759-01]
13,16.1,Cn1ccnc1CN1CCNc2cc(Nc3ccccc3)ncc2C1 [NCGC00411128-01]
14,2.48,CCOC(=O)N1CCc2c(sc(NCc3cccc(F)c3)c2C(=O)Nc2ccc(OC)cc2OC)C1 [NCGC00140797-01]
15,15.7,CCOC(=O)c1ccc(NC(=O)c2csc3c2CCCC3)cc1 [NCGC00112858-01]
16,> 30,CC(C)n1cnnc1CN(C)c1nc(N)nc2[nH]cnc12 [NCGC00449084-01]
17,0.7,COc1ccccc1NC(=O)Cn1c(C)ccc(NC(=O)Nc2ccc(C)cc2)c1=O [NCGC00430778-01]
